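Cells were grown in 96-well plates and exposed to each compound for 48 hours at five concentrations; endpoints were interpolated linearly between bracketing concentrations, or set to the highest concentration if not reached. GI50 is the concentration that inhibits growth by half. The concentration for full growth arrest is given as TGI.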
How the values were obtained:
Assay in all cases: NCI-60 cell line screen, 48 h
786-0 renal = test system: 786-0 renal
A498 renal = test system: A498 renal
A549 NSCLC = test system: A549 NSCLC
ACHN renal = test system: ACHN renal
BT-549 breast = test system: BT-549 breast
CAKI-1 renal = test system: CAKI-1 renal
CCRF-CEM leukemia = test system: CCRF-CEM leukemia
COLO 205 colon = test system: COLO 205 colon
DU-145 prostate = test system: DU-145 prostate
EKVX NSCLC = test system: EKVX NSCLC
HCC-2998 colon = test system: HCC-2998 colon
HCT-116 colon = test system: HCT-116 colon
HCT-15 colon = test system: HCT-15 colon
HL-60(TB) leukemia = test system: HL-60(TB) leukemia
HOP-62 NSCLC = test system: HOP-62 NSCLC
HOP-92 NSCLC = test system: HOP-92 NSCLC
HS 578T breast = test system: HS 578T breast
HT29 colon = test system: HT29 colon
IGROV1 ovarian = test system: IGROV1 ovarian
K-562 leukemia = test system: K-562 leukemia
KM12 colon = test system: KM12 colon
LOX IMVI melanoma = test system: LOX IMVI melanoma
M14 melanoma = test system: M14 melanoma
MALME-3M melanoma = test system: MALME-3M melanoma
MCF7 breast = test system: MCF7 breast
MDA-MB-231 breast = test system: MDA-MB-231 breast
MDA-MB-435 = test system: MDA-MB-435
MOLT-4 leukemia = test system: MOLT-4 leukemia

Work on N#Cc1cnc2ccc(-c3cnc(N)nc3)cc2c1N1CCc2cc(F)c(Cl)cc21 yielded a GI50 (786-0 renal) of 425 nM, a TGI (786-0 renal) of 3950 nM and a GI50 (A498 renal) of 147 nM. It also gave a TGI (A498 renal) of 552 nM, a GI50 (A549 NSCLC) of 479 nM and a TGI (A549 NSCLC) of 13200 nM. For the same compound, the GI50 (ACHN renal) was 489 nM, the TGI (ACHN renal) was 11900 nM and the GI50 (BT-549 breast) was 239 nM. It also gave a TGI (BT-549 breast) of 1800 nM, a GI50 (CAKI-1 renal) of 268 nM and a TGI (CAKI-1 renal) of 2800 nM. For the same compound, the GI50 (CCRF-CEM leukemia) was 486 nM, the TGI (CCRF-CEM leukemia) was greater than 100000 nM and the GI50 (COLO 205 colon) was 795 nM. It also gave a TGI (COLO 205 colon) of 2850 nM, a GI50 (DU-145 prostate) of 510 nM and a TGI (DU-145 prostate) greater than 39500 nM. The GI50 (EKVX NSCLC) was 496 nM, the TGI (EKVX NSCLC) was 3950 nM and the GI50 (HCC-2998 colon) was 572 nM. The TGI (HCC-2998 colon) was 7500 nM, the GI50 (HCT-116 colon) was 917 nM and the TGI (HCT-116 colon) was 2640 nM. It also gave a GI50 (HCT-15 colon) of 385 nM, a TGI (HCT-15 colon) of 11500 nM and a GI50 (HL-60(TB) leukemia) of 705 nM. The TGI (HL-60(TB) leukemia) was 4380 nM, the GI50 (HOP-62 NSCLC) was 434 nM and the TGI (HOP-62 NSCLC) was greater than 21700 nM. For the same compound, the GI50 (HOP-92 NSCLC) was 201 nM, the TGI (HOP-92 NSCLC) was 1180 nM and the GI50 (HS 578T breast) was 186 nM. For the same compound, the TGI (HS 578T breast) was 774 nM, the GI50 (HT29 colon) was 587 nM and the TGI (HT29 colon) was 9740 nM. For the same compound, the GI50 (IGROV1 ovarian) was 235 nM, the TGI (IGROV1 ovarian) was 1260 nM and the GI50 (K-562 leukemia) was 997 nM. The TGI (K-562 leukemia) was greater than 100000 nM, the GI50 (KM12 colon) was 773 nM and the TGI (KM12 colon) was 4180 nM. It also gave a GI50 (LOX IMVI melanoma) of 355 nM, a TGI (LOX IMVI melanoma) of 7970 nM and a GI50 (M14 melanoma) of 612 nM. The TGI (M14 melanoma) was 8510 nM, the GI50 (MALME-3M melanoma) was 366 nM and the TGI (MALME-3M melanoma) was 2960 nM. For the same compound, the GI50 (MCF7 breast) was 300 nM, the TGI (MCF7 breast) was 14000 nM and the GI50 (MDA-MB-231 breast) was 450 nM. The TGI (MDA-MB-231 breast) was 7930 nM, the GI50 (MDA-MB-435) was 495 nM and the TGI (MDA-MB-435) was 3560 nM. For the same compound, the GI50 (MOLT-4 leukemia) was 577 nM and the TGI (MOLT-4 leukemia) was greater than 64600 nM.

From PubChem BioAssay (NCI)
